Experimental data published in patent publication US11053219B2, “Substituted pyridines as TYK2 inhibitors” (FronThera U.S. Pharmaceuticals LLC, priority 2018, dated 2021).
Like-named read-outs stand apart in the source and are kept apart here. Values belong to the compound of their own block, whether it stands above or below them.

Legend:
[1] = tested on: INFα induced pSTAT5 in human PBMC; experiment: INFα induced pSTAT5 in human PBMC; assay type: cell-based; conditions: read-out: p-STAT5 IC50
[2] = biological target: TYK2 (JH2 domain) (Homo sapiens (Human), UniProt P29597); experiment: TYK2 JH2 domain binding assay (DiscoverX KINOMEscan); conditions: 11-point 3-fold dilution, duplicate
[3] = tested on: IL12-induced p-STAT4 in human PBMC; experiment: IL-12 induced pSTAT4 in human PBMC; assay type: cell-based; conditions: read-out: p-STAT4 IC50

TYK2 (JH2 domain), sequence (P29597 589-875): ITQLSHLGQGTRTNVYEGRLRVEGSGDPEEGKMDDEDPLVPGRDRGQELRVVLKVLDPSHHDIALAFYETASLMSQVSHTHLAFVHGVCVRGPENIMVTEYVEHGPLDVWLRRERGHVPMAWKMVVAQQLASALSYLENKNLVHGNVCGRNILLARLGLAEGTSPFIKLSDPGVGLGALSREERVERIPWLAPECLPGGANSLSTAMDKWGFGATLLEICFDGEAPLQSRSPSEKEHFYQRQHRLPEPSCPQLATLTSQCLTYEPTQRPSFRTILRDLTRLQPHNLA

SMILES: CCC(=O)c1cnc(NC(=O)N2CCC2)cc1Nc1cccc(-c2ncn(C)n2)c1OC [Example 114]
- IC50 ([1]; human PBMC, INFα 5000 units/ml): < 100 nM

- Kd [2]: ≤ 1 nM
SMILES: [2H]C([2H])([2H])NC(=O)c1nnc(N2CCN(C3CCCOC3)C2=O)cc1Nc1cccc(-c2ncn(C)n2)c1OC (stereo not drawn) [Example 98]
- IC50 ([3]; human PBMC, IL-12 10 ng/ml): < 100 nM

SMILES: COc1c(Nc2cc(Nc3ccc(N4CCOCC4)cn3)ncc2C(=O)C2CC2)cccc1-c1ncn(C)n1 [Example 110]
- IC50 ([1]; human PBMC, INFα 5000 units/ml): < 100 nM

SMILES: [2H]C([2H])([2H])NC(=O)c1nnc(NC(=O)N2CC(F)(C#N)C2)cc1Nc1cccc(-c2ncn(C)n2)c1OC [Example 151]
- IC50 ([1]; human PBMC, INFα 5000 units/ml): < 100 nM

SMILES: COc1c(-c2ncn(C)n2)ccnc1Nc1cc(Nc2ccc(C)nn2)ncc1C(=O)C1CC1 [Example 155]
- IC50 ([1]; human PBMC, INFα 5000 units/ml): < 100 nM

SMILES: [2H]C([2H])([2H])CC(=O)c1cnc(Nc2ccc(C(C)(C)O)cn2)cc1Nc1ncccc1S(C)(=O)=O [Example 172]
- IC50 ([1]; human PBMC, INFα 5000 units/ml): < 100 nM

SMILES: COc1c(Nc2cc(Nc3ccc(C(C)(C)O)c(F)n3)ncc2C(=O)C2CC2)cccc1-c1ncn(C)n1 [Example 120]
- IC50 ([1]; human PBMC, INFα 5000 units/ml): < 100 nM

SMILES: COc1c(Nc2cc(Nc3cc(C)nc(C)n3)ncc2C(=O)C2CC2)cccc1-c1ncn(C)n1 [Example 111]
- IC50 ([1]; human PBMC, INFα 5000 units/ml): < 100 nM

SMILES: [2H]C([2H])([2H])CC(=O)c1cnc(NC(=O)C2CC2)cc1Nc1cccc(-c2ncn(C)n2)c1OC [Example 171]
- IC50 ([1]; human PBMC, INFα 5000 units/ml): < 100 nM

SMILES: COc1c(Nc2cc(NC(=O)C3CC3F)ncc2C(=O)C2CC2)cccc1-c1ncn(C)n1 (stereo not drawn) [Example 130]
- IC50 ([1]; human PBMC, INFα 5000 units/ml): < 100 nM

SMILES: [2H]C([2H])([2H])CC(=O)c1cnc(Nc2ccc(C(C)(C)O)c(F)n2)cc1Nc1ncccc1S(C)(=O)=O [Example 184]
- IC50 ([1]; human PBMC, INFα 5000 units/ml): < 100 nM

SMILES: COc1c(Nc2cc(Nc3nccc(=O)[nH]3)ncc2C(=O)C2CC2)cccc1-c1ncn(C)n1 [Example 135]
- IC50 ([1]; human PBMC, INFα 5000 units/ml): 1000 to 10000 nM

SMILES: CCC(=O)c1cnc(N2CCN(C(C)C)C2=O)cc1Nc1cccc(-c2ncn(C)n2)c1OC [Example 115]
- IC50 ([1]; human PBMC, INFα 5000 units/ml): < 100 nM

SMILES: [2H]C([2H])([2H])Oc1c(Nc2cc(NC(=O)C3CC3)ncc2C(=O)C2CC2)cccc1-c1ncn(C)n1 [Example 34]
- IC50 ([3]; Homo sapiens, PBMC): < 100 nM

SMILES: [2H]C([2H])([2H])NC(=O)c1nnc(NC(=O)N2CC(C)(F)C2)cc1Nc1cccc(-c2ncn(C)n2)c1OC [Example 142]
- IC50 ([1]; human PBMC, INFα 5000 units/ml): < 100 nM

SMILES: COc1c(Nc2cc(Nc3cnc(C)cn3)ncc2C(=O)C2CC2)cccc1-c1ncn(C)n1 [Example 152]
- IC50 ([1]; human PBMC, INFα 5000 units/ml): < 100 nM

SMILES: COc1c(Nc2cc(Nc3ccnc(C)n3)ncc2C(=O)C2CC2)cccc1-c1ncn(C)n1 [Example 153]
- IC50 ([1]; human PBMC, INFα 5000 units/ml): < 100 nM

SMILES: COc1c(Nc2cc(Nc3ccn(C)n3)ncc2C(=O)C2CC2)cccc1-c1ncn(C)n1 [Example 138]
- IC50 ([1]; human PBMC, INFα 5000 units/ml): < 100 nM

SMILES: COc1c(Nc2cc(Nc3cc(C#N)ccn3)ncc2C(=O)C2CC2)cccc1-c1ncn(C)n1 [Example 136]
- IC50 ([1]; human PBMC, INFα 5000 units/ml): < 100 nM

SMILES: CNC(=O)c1nnc(NC(=O)N2CC(C)C2)cc1Nc1cccc(-c2ncn(C)n2)c1OC [Example 129]
- IC50 ([1]; human PBMC, INFα 5000 units/ml): < 100 nM

SMILES: [2H]C([2H])([2H])CC(=O)c1cnc(Nc2cc(C)nc(C)n2)cc1Nc1ncccc1S(C)(=O)=O [Example 191]
- IC50 ([1]; human PBMC, INFα 5000 units/ml): < 100 nM

SMILES: [2H]C([2H])([2H])NC(=O)c1nnc(NC(=O)N2CC(C(F)F)C2)cc1Nc1cccc(-c2ncn(C)n2)c1OC [Example 157]
- IC50 ([1]; human PBMC, INFα 5000 units/ml): < 100 nM

SMILES: COc1c(Nc2cc(Nc3ccc(N4CCOCC4=O)cn3)ncc2C(=O)C2CC2)cccc1-c1ncn(C)n1 [Example 149]
- IC50 ([1]; human PBMC, INFα 5000 units/ml): < 100 nM

SMILES: [2H]C([2H])([2H])CC(=O)c1cnc(NC(=O)C2CC2)cc1Nc1nccc(-c2ncn(C)n2)c1OC [Example 193]
- IC50 ([1]; human PBMC, INFα 5000 units/ml): < 100 nM

SMILES: [2H]C([2H])([2H])NC(=O)c1nnc(NC(=O)N2CC(C#N)C2)cc1Nc1cccc(-c2ncn(C)n2)c1OC [Example 144]
- IC50 ([1]; human PBMC, INFα 5000 units/ml): < 100 nM

SMILES: CCC(=O)c1cnc(Nc2cc(C)n(C)n2)cc1Nc1nccc(-c2ncn(C)n2)c1OC [Example 180]
- IC50 ([1]; human PBMC, INFα 5000 units/ml): < 100 nM

SMILES: [2H]C([2H])([2H])NC(=O)c1nnc(N2CCN(C(C)C)C2=O)cc1Nc1nccc(-c2ncn(C([2H])([2H])[2H])n2)c1OC [Example 160, 6-(3-isopropyl-2-oxo-imidazolidin-1-yl)-4-[[3-methoxy-4-[1-(trideuteriomethyl)-1,2,4-triazol-3-yl]-2-pyridyl]amino]-N-(trideuteriomethyl)pyridazine-3-carboxamide]
- IC50 ([1]; human PBMC, INFα 5000 units/ml): < 100 nM

SMILES: CCC(=O)c1cnc(Nc2cc(C)n(C)n2)cc1Nc1cccc(-c2ncn(C)n2)c1OC [Example 178]
- IC50 ([1]; human PBMC, INFα 5000 units/ml): < 100 nM

SMILES: [2H]C([2H])([2H])Oc1c(Nc2cc(NC(=O)C3CC3)ncc2C(=O)C2CC2)cccc1-c1ncn(C([2H])([2H])[2H])n1 [Example 127]
- IC50 ([1]; Homo sapiens, PBMC): < 100 nM
